Experiments:
Assay type in all cases: biochemical
[1] = molecular target: T1, porcine heart citrate synthase (CS) (Sus scrofa, UniProt P00889); assay: Citrate synthase thermal aggregation (turbidity at 360 nm); settings: CS 96 μg/mL, 45° C., standard deviation in parenthesis
T1 construct: porcine heart citrate synthase (CS); from tissue; host or cells: porcine heart
T1 sequence (P00889 28-464): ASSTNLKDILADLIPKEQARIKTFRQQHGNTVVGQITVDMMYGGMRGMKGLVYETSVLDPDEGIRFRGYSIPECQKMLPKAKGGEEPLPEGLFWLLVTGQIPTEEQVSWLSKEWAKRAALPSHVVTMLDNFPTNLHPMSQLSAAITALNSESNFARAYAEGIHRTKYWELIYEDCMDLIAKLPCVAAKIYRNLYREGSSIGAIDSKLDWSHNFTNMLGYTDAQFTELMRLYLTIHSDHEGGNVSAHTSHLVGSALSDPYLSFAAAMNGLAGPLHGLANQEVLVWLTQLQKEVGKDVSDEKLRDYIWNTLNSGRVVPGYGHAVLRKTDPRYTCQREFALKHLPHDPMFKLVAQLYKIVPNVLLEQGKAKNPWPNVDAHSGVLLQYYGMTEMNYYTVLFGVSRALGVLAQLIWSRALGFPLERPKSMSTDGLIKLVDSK
Method in brief: (§1)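 Additive effects on thermal aggregation were read from the steepest slope of OD360-versus-time curves recorded over 1 h and referenced to additive-free protein. FGF-1 (50 μg/mL, phosphate/NaCl pH 7.2) was stressed at 50° C; citrate synthase (96 μg/mL, HEPES/KCl pH 7.8) at 45° C.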

Bovine insulin = molecular target: T2, Bovine insulin (Bos taurus, UniProt P01317); assay: Insulin aggregation (turbidity at 360 nm) induced by DTT; settings: for inhibition index: Insulin 0.25 mg/mL, 25° C., DTT, compound 100×, standard deviation in parenthesis
T2 construct: purchased Sigma, St. Louis, Mo., USA
Method in brief: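 Reductive aggregation of insulin was tracked as optical density at 360 nm over 1 hour at 25° C. Insulin at 0.25 mg/mL in pH 7.0 phosphate saline was stirred with the test compound in 1 cm thermostatted cuvettes, read every 30 seconds, or in 96-well plates. DTT […] was then added. Compound-free insulin served as the reference.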

[2] = molecular target: T3, porcine somatotropin (pST) (Sus scrofa, UniProt P01248); assay: Porcine somatotropin aggregation (turbidity at 360 nm) with PEG 8000; settings: pST 1.27 mg/mL, 60° C., standard deviation in parenthesis
T3 construct: purchased Pfizer, Inc., Groton, Conn., USA (provided, not bought)
T3 sequence (P01248 27-216): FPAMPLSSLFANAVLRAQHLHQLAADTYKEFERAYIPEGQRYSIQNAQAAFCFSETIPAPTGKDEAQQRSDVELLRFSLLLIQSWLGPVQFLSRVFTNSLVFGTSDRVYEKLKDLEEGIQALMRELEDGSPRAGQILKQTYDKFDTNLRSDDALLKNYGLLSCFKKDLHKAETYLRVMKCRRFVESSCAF
Method in brief: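 pST 1.27 mg/mL, 60° C, PEG 8000 20 mg/mL; lysozyme 0.4 mg/mL, 25° C, DTT 1.27E-4 M; HLF 0.4 mg/mL, 43° C, DTT 1.27E-4 M; ADH 1 mg/mL, PBS pH 7.0, 37° C, Cu(OP)2 7.76E-5 M. Turbidity at 360 nm over 1 h, vs no-compound control.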

[3] = molecular target: human acidic fibroblast growth factor (FGF-1) (Homo sapiens, UniProt P05230); assay: FGF-1 thermal aggregation (turbidity at 360 nm); settings: FGF-1 50 μg/mL, 50° C., standard deviation in parenthesis
Method in brief: as §1

T2 sequence (P01317 25-54 limits assumed): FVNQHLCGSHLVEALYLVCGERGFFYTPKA
T2 sequence (P01317 85-105 limits assumed): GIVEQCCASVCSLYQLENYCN
Sequence of human acidic fibroblast growth factor (FGF-1) (P05230 whole entry): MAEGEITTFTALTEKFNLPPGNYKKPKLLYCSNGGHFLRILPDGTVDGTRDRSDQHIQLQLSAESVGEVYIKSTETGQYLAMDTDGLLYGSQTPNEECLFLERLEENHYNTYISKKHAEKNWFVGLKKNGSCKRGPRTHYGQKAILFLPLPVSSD

Row | Compound | inhibition index ([1]; compound 10,000X) | inhibition index ([1]; compound 50,000X) | inhibition index (Bovine insulin) | inhibition index ([2]; compound 100X) | inhibition index ([2]; compound 2,000X) | inhibition index ([3]; compound 1,000×) | inhibition index ([3]; compound 10,000×) | inhibition index ([1]; compound 1,000X) | inhibition of insulin aggregation, in words (Bovine insulin)
1 | NCCCCCCN [1,6-diaminohexane] | 0.6 (0.2) | 4.8 (1.5) | 1.5 (0.3) | 0.6 (0.1) | 1.9 (0.2) | 1.6 (0.6) | 27.0 (9.8) |  | 
2 | tetraglycine |  |  | 1.5 (0.3) | 0.8 (0.1) | 3.4 (0.6) | 3.8 (0.8) |  | 1.5 (0.1) | 
3 | NCCCCCCCN [1,7-diaminoheptane] | 0.6 (0.2) | 1.7 (0.7) | 2.7 (1.0) | 0.7 (0.0) | 1.6( 0.7) | 2.0 (0.7) | 6.2 (2.4) |  | weak inhibitions
4 | O=C(O)CCCCCCC(=O)O [suberate, suberic acid] | 1.1 (0.2) | 14.1 (2.1) | 1.6 (0.3) | 0.7 (0.0) | 1.7 (0.3) | 2.3 (0.5) | 7.1 (5.4) |  | 
5 | NCCCCC(=O)O [5-aminovalerate, 5-aminovaleric acid] | 0.7 (0.1) | 1.9 (0.7) | 1.2 (0.1) | 0.4 (0.0) | 0.7 (0.1) | 1.1 (0.2) | 2.2 (1.4) |  | 
6 | O=C(O)CCCCC(=O)O [adipate, adipic acid] | 1.2 (0.5) | 19.6 (17.1) | 1.2 (0.7) | 0.9 (0.1) | 3.9 (0.7) | 3.0 (0.7) | 5.0 (3.3) |  | 
7 | NCCCC(=O)O [4-aminobuytrate, 4-aminobutyric acid] | 0.6 (0.1) | 1.2 (0.4) | 1.2 (0.3) | 0.3 (0.0) | 1.1 (0.2) | 1.5 (0.0) | 1.4 (0.3) |  | 
8 | O=C([O-])CC(=O)[O-].[Na+].[Na+] [malonate, sodium malonate] | 2.4 (0.5) | 9 | 1.2 (0.5) | 0.9 (0.1) | 4.9 (0.5) | 2.2 (0.4) | 36.6 (29.0) |  | 
